Data reported in BindingDB's records for doi:10.1021/jm960793t (Suntory, 1997).

Experiments:
Chymase = biological target: T1, Chymase (Homo sapiens, UniProt P23946); assay: Inhibitory activity against human heart chymase in vitro.
T1 sequence (P23946 whole entry): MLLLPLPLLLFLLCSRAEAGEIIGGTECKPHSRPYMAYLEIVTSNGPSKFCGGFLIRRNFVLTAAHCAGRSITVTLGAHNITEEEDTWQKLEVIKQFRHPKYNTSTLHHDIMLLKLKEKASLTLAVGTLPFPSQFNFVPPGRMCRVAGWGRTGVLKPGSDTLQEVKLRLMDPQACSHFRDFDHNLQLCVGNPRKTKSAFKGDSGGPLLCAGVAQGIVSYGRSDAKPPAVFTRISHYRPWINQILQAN

Cathepsin G = biological target: T2, Cathepsin G (Homo sapiens, UniProt P08311); assay: Inhibitory activity against human neutrophil cathepsin G.
T2 sequence (P08311 whole entry): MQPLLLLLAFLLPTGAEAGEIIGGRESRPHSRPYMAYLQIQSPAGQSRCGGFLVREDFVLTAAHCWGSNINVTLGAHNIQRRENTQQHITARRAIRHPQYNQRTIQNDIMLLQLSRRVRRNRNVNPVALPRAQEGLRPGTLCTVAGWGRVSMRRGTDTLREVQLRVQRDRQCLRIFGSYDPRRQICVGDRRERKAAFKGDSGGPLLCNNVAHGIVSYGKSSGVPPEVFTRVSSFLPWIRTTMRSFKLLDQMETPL

| IC50 (Chymase) [µM] | IC50 (Cathepsin G) [µM] | Structure (SMILES) |
| --- | --- | --- |
| > 100 |  | O=c1n(S(=O)(=O)c2ccc(Cl)cc2)cc(O)n1-c1ccc(Cl)cc1 [1-(4-Chloro-benzenesulfonyl)-3-(4-chloro-phenyl)-imidazolidine-2,4-dione] |
| > 100 | > 100 | O=C(OCn1c(O)cn(-c2ccccc2)c1=O)c1ccccc1 [Benzoic acid 2,5-dioxo-3-phenyl-imidazolidin-1-ylmethyl ester] |
